| SMILES | melting point |
| --- | --- |
| CCCCCc1oc(-c2ccc(Cl)cc2)nc1CC(=O)O | 136 to 137 °C |
| CN(C#N)C(=O)CCCCC(=O)N(C)C#N | 86.1 to 87.8 °C |
| O=C(O)C1CCCCc2c(-c3ccc(Cl)cc3)noc2C1 (configuration not stated) | 215 °C |
| O=C1CCc2c1cccc2C(F)(F)F | 32 to 36 °C |
| Clc1ccc2nc3n(c2c1)CCC3 | 136 °C |
| CCOC(=O)c1sc(N)nc1CC | 177 to 179 °C |
| N#CC1(c2ccccc2)CCCCC1 | 120 to 122 °C |
| CC(C)(C)OC(=O)NNC(=S)Nc1ccc(F)cc1 | 158 to 160 °C |
| OCCc1c(-c2ccccc2)[nH]c2nccnc12 | 201 to 202 °C |
| CN1CCN=C(c2ccccc2)c2cc(C#N)ccc21 | 149 to 150 °C |
| CSc1ccc([N+](=O)[O-])cc1C(F)(F)F | 50 °C |
| CCOC(=O)c1cc(F)c2c(c1Cl)C(OCCF)CCS2(=O)=O (configuration not stated) | 87 to 89 °C |
| CCOC(=O)c1cnc2sc(C)cc2c1O | 118 to 120 °C |
| COc1cc(C)nc(S(C)(=O)=O)n1 | 80 °C |
| CCCCCCCCCCCCCCCCCC[N+](=O)[O-] | 47 to 50 °C |
| CC(=O)OCOC(=O)Oc1c(Br)cc(C#N)cc1Br | 84 to 86 °C |
| c1ccc(C2CN3CCN=C3S2)nc1 (configuration not stated) | 70 °C |
| O=C(O)CCCC#CCC1=CC(O)CC1=O (configuration not stated) | 65 to 71 °C |
| N#CC=C1CCc2ccc3ncoc3c21 | 166 to 168 °C |
| COCCNC(=O)c1ccc(SC)c(N)c1 | 66 to 68 °C |
| Cc1c(Cl)[nH]c(=O)n(Cc2ccccc2)c1=O | 202 to 205 °C |

| SMILES | melting point |
| --- | --- |
| CCCCC1(O)c2cc(NC(=O)CC(C)(C)C)c(C)c(C)c2OC1(C)C (configuration not stated) | 161 to 162 °C |
| COc1c([N+](=O)[O-])cc(C)c(C)c1[N+](=O)[O-] | 67.3 to 67.6 °C |
| CN1CCC(N(C)C(=O)c2ccc3nonc3c2)CC1 | > 260 °C |
| CCn1c(CCSC)nc(N2CCc3ccccc3CC2)c(C#N)c1=O | 102 to 104 °C |
| CCOC(=O)c1n[nH]c(C)c1Cl | 106 to 107 °C |
| O[C@@H](COCc1ccccc1)[C@H](OCc1ccccc1)[C@@H](OCc1ccccc1)[C@@H](O)COCc1ccccc1 | 52.5 to 53 °C |
| CC(=O)NC(=Cc1ccc(F)cc1)C(=O)OCCC(F)=C(F)F | 116 °C |
| COc1nc(Cc2ccccc2NS(=O)(=O)C(F)(F)F)nc(OC)n1 | 101 to 108 °C |
| CC(C)[C@H]1CC[C@H](O)C=C1S(=O)(=O)c1ccccc1 | 105 °C |
| O=C(NCCCl)Nc1ccc2[nH]ccc2c1 | 159 to 161 °C |
| O=C(Nc1cc(Cl)c(O)c(Cl)c1)c1cc(F)ccc1O | 227 to 229 °C |
| O=C(C=Cc1ccco1)c1cnc2sc3c(n12)CCCCC3 | 161 to 162 °C |
| CN1CCc2c(c3ccccc3n2CCC(N)=S)C1 | 149 to 151 °C |
| O=C(O)C(=O)N1CCC(Oc2ccccc2)CC1 | 109 to 112 °C |
| Cc1cc(Cl)c(C)c(C(=O)O)c1 | 168 to 170 °C |
| CCCCCCCCCCCCCCCCCCNC(=O)OCC(CNS(=O)(=O)CCCI)OC(=O)NC (configuration not stated) | 97 to 99 °C |
| Cc1nn(-c2cc3nc(S)sc3cc2Cl)c(=O)n1C(F)F | 201 to 203 °C |
| CC[C@H](CO)NC(=O)c1ccc(C(=O)N2CCN(c3ncccc3NC(C)C)CC2)nc1 | 85 to 88 °C |
| O=[N+]([O-])c1cc(Cl)cc(C(Cl)c2cc(Cl)cc([N+](=O)[O-])c2O)c1O | 180 °C |
| OC(c1ccccc1)(c1cccc(C(F)(F)F)c1)N1CCCCC1 (configuration not stated) | 97 to 100 °C |
| CC(=O)NC(CO)C(=O)c1ccccc1 (configuration not stated) | 115 to 117 °C |

The remaining lines, values ahead:

| melting point | SMILES |
| --- | --- |
| 181 to 183 °C | CC(=O)c1cccc(Nc2ccc3ccccc3n2)c1 |
| 210 to 213 °C | COC(c1ccccc1Cl)c1cc(Cl)ccc1-c1c(C(=O)O)cnn1C (configuration not stated) |
| 154 to 156 °C | Cc1ccc(-c2cccc(/C=C/C(=O)Nc3ccc(CN4CCCCC4)cc3)c2)cc1 |
| 201 to 203 °C | Cc1c(C)c2c(c(C)c1NC(=O)c1ccc(Cl)cc1)C(c1ccc(C(C)C)cc1)C(C)(C)O2 (configuration not stated) |
| 129 to 131 °C | Brc1ccc(-c2nc(-c3cccc(Br)c3)n(-c3ccccc3)n2)cc1 |
| 140 to 150 °C | Clc1ccc(-c2nc3ccccc3nc2Cl)c(Cl)c1 |
| 103 °C | Nc1ccccc1CCN1CCN(c2ccccc2)CC1 |
| 65 to 66 °C | CCOC(=O)CCc1nc(-c2ccc(Cl)cc2)co1 |
| 210 to 212 °C | COc1cc(-c2cnc3[nH]cc(C(=O)N4CCCC4)c3n2)cc(OC)c1OC |
| 195 to 197 °C | Fc1ccc(Nc2ncnc3ccc(-c4ccsc4)cc23)cc1Cl |
| 107 to 109 °C | CC(=O)NCc1ccc(/C=C/C(c2cc(Cl)cc(Cl)c2)C(F)(F)F)cc1 (configuration not stated) |
| 122 °C | COc1cc(Nc2nccc(C(C)(C)C)n2)cc(OC)c1OC |
| 148 to 150 °C | CSc1ccc(C(C)C)c(NC(=O)CN2CCN(CCSc3nc4ccccc4o3)CC2)c1C(C)C |
| 290 °C | COc1ccccc1Sc1c(O)nc(C)[nH]c1=O |
| 123 to 124 °C | CCOC(=O)c1nccn1CCCc1ccc(OCc2coc(/C=C/c3ccccc3)n2)cc1 |
| 115 °C | CC(C)(CSc1ccc(Cl)cc1)C(=O)C(Oc1ccc(Cl)cc1)n1cncn1 (configuration not stated) |
| 108 to 110 °C | CC(=O)Nc1cc(C(C)=O)ccc1OCCCN1CCC(c2noc3cc(F)ccc23)CC1 |
| 148 to 151 °C | CNC(=O)c1cccc(NC(=O)Cc2ccc([N+](=O)[O-])cc2)c1 |
| 138 °C | COC(=O)c1ccc(C(=O)Nc2sc3c(c2C(=O)NCc2ccc4c(c2)OCO4)CCCC3)cc1 |
| 196 to 197 °C | Cn1ccc(-c2ccc(C(=O)N3Cc4cccnc4Nc4ccccc43)c(Cl)c2)n1 |

| melting point | SMILES |
| --- | --- |
| 222 to 224 °C | COc1ccc(C2(C)C(=O)Nc3cc(OC)cc(Cl)c3C2=O)cc1 (configuration not stated) |
| 160 to 162 °C | O=C1N(Cc2ncon2)c2ccccc2C12COc1cc3c(cc12)OCO3 (configuration not stated) |
| 52 to 54 °C | O=C(OC(c1ccccc1)c1ccccc1)C(O)Cc1ccc(F)cc1 (configuration not stated) |
| 123 to 126 °C | O=C(O)CNC(=O)c1cccc2c(-c3ccccc3)c([N+](=O)[O-])oc12 |
| 129 to 131 °C | CCc1cnc(N2CCC(c3ccc(COc4ccc(C#N)c(F)c4)nc3)CC2)nc1 |
| 118 to 120 °C | CC1Cc2cc(Cl)ccc2C(c2ccc([N+](=O)[O-])cc2)O1 (configuration not stated) |
| 131 °C | COc1ccc(C2NCCc3c2[nH]c2ccccc32)cc1 (configuration not stated) |
| 81 to 83 °C | C#Cc1ccc(-c2c(F)cccc2F)cc1 |
| 218 °C | COC(=O)c1cc(C(=O)c2ncc3ccccn23)ccc1NC(=O)c1ccccc1 |
| 195 °C | OCCOc1ccc(-c2nc(-c3ccc(OCCO)cc3O)nc(-c3ccc(OCCO)cc3O)n2)c(O)c1 |
| 118 to 119 °C | COc1cc2c(cc1OCc1ccccc1)CCNC2c1ccccc1 (configuration not stated) |
| 158 to 160 °C | COc1cc(OC)c2c(=O)c(I)coc2c1 |
| 116 to 117 °C | COc1ccc(CCNc2cc(-n3cccn3)nc(-c3cccs3)n2)cc1OC |
| 290 to 292 °C | COC(=O)c1cc(-c2ccc3c(c2)c2cc(-c4ccc(Cl)cc4Cl)c(=O)n(C)c2n3C)[nH]n1 |
| 225 to 229 °C | COC(=O)C1=C(C)NC(C)=C(c2nnco2)C1c1cccc(Cl)c1Cl (configuration not stated) |
| 193 to 195 °C | CC(C)(C)c1cc(C(=O)NCCc2ccc(N)cc2)cc(C(C)(C)C)c1O |
| 132 to 133 °C | COc1ccc(C(=O)c2c(N)sc(C)c2C)cc1 |
| 220 to 221 °C | O=c1[nH]c(COc2ccccc2)nc2nccnc12 |
| 161 °C | CCn1nc(C)c(-c2ccc3c(c2)NC(=O)CO3)c1-c1ccc(F)cc1 |
| 132 to 134 °C | O=C1C(c2cccn2-c2ccccc2)=CC(=O)c2ncccc21 |

| melting point | SMILES |
| --- | --- |
| 251 to 255 °C | O=C(O)c1ccc(CN2C(=O)C3CCCC3=Nc3ccc(Cl)cc32)cc1 (configuration not stated) |
| 144 to 146 °C | C[C@H](NC(=O)OCC1c2ccccc2-c2ccccc21)C(=O)O |
| 190 to 192 °C | O=C(O)Cc1cccc2c(-c3ccc(Br)cc3)onc12 |
| 198 to 199 °C | Cc1oc(-c2ccc(F)cc2)cc1C(=O)Nc1cccc(CSCC(=O)O)c1 |
| 72 to 76 °C | CC(C)C[C@@H](CO)NC(=O)[C@H](Cc1c[nH]cn1)NC(=O)C(CNCCCc1ccccc1)Cc1cccc2ccccc12 (some centres not stated) |
| 187 to 188 °C | COc1ccccc1C(=O)NCC(=O)N1c2ccccc2N(Cc2ccccc2)C(=O)C2CCCC21 (configuration not stated) |
| 125 °C | CCCCNCC(=O)Nc1ccc2c(c1)C(=O)c1cc(NC(=O)CNCCCC)ccc1C2=O |
| 81 to 83 °C | CCN(CC)CCNC(=O)c1c(I)ccc2cc3ccccc3nc12 |
| 173 to 174 °C | CCOCc1nc2c(N)nc3ccccc3c2n1CCCCS(=O)(=O)N(C)C |
| 126 to 128 °C | O=C(O)CC(NC(=O)c1ccc2c(c1)CCC(=NNC1=NCCN1)C1=C2CCC1)c1cccnc1 (configuration not stated) |
| 173 to 175 °C | Cn1cc(C2=C(c3c4n(c5ccccc35)C[C@@H]3CN(C(=O)OC(C)(C)C)C[C@@H]3C4)C(=O)NC2=O)c2ccccc21 (relative stereo) |
| 156 to 161 °C | COc1ccc(C2(c3ccc(N(C)C)cc3)OC(=O)c3ccc(N(C)C)cc32)cc1 (configuration not stated) |
| 119 to 121 °C | CC(C)(C)OC(=O)COc1ccc(C(=O)O)cc1 |
| 117 to 120 °C | OCC1=Cc2cc(Cl)ccc2Sc2sccc21 |
| 111 to 126 °C | Nc1c(CCO)cccc1C(=O)c1ccc(Cl)cc1 |
| 112 to 114 °C | CS(=O)(=O)c1ccc(-c2cnn(CC(F)(F)F)c(=O)c2Cc2ccccc2)cc1 |
| 247 to 249 °C | C[C@]1(COc2ccc(N3CCC(N4CCN(c5ccc(Cl)cc5)CC4)CC3)cc2)Cn2cc([N+](=O)[O-])nc2O1 |
| 105 °C | c1ccc(CCCNc2ccc(-c3cc(-c4ccc(NCCCc5ccccc5)cc4)cc(-c4ccc(NCCCc5ccccc5)cc4)c3)cc2)cc1 |
| 81 to 83 °C | COc1cc(C)c(C(=O)c2c(C(F)(F)F)cc(Cl)nc2Cl)c(OC)c1OC |
| 263 °C | CC(C)Oc1ccc(-c2ccc3nc(C(=O)NC(Cc4ccc(OCc5ccccc5)cc4)C(=O)O)cn3c2)cc1 (configuration not stated) |
